# Results reported in patent publication US8012939B2 (Tibotec Pharmaceuticals Ltd. Co, priority 2005, dated 2011).
# pEC50, pKi: −log10 of the molar value. Like-named read-outs stand apart in the source and are kept apart here.
# What was measured:
# [1] = rcm bond, Hoveyda-Grubbs 1st generation catalyst, 1,2-dichloroethane, 70.0 °C
# [2] = target: T1, HCV NS3/4A protease complexes (full-length hepatitis C NS3 protease enzyme with NS4A cofactor) (Hepatitis C virus genotype 1a, UniProt P27958); experiment: Inhibition assay (enzymatic assay, depsipeptide substrate hydrolysis); format: biochemical; conditions: enzyme 1 nM, 25 μM NS4A cofactor, 0.5 μM substrate, 30° C., pH 7.5, model for competitive inhibition
# T1 construct: full-length hepatitis C NS3 protease enzyme
# Method: [Landro, 1997 #Biochem 36 9340-9348]. […] The solutions were stored at −20° C. between measurements.
# [Liu, 1999 Analytical Biochemistry 267 331-335].
# [3] = system: HCV replicons (HCV type 1b, Huh-7 luc/neo cells); experiment: Replicon assay (Huh-Luc cells, luciferase read-out); format: cell-based; conditions: Hepatitis C virus, Huh-7, 72 h
# From the text: The compounds of formula (I) were examined for activity in the inhibition of HCV RNA replication in a cellular assay. […] The cellular assay was based on a bicistronic expression construct, as described by Lohmann et al. (1999) Science vol. 285 pp. 110-113 with modifications described by Krieger et al. (2001) Journal of Virology 75: 4614-4624, in a multi-target screening strategy. In essence, the method was as follows.
# The assay utilized the stably transfected cell line Huh-7 luc/neo (hereafter referred to as Huh-Luc). This cell line harbors an RNA encoding a bicistronic expression construct comprising the wild type NS3-NS5B regions of HCV type 1b translated from an Internal Ribosome Entry Site (IRES) from encephalomyocarditis virus (EMCV), preceded by a reporter portion (FfL-luciferase), and a selectable marker portion (neo^R, neomycine phosphotransferase). The construct is bordered by 5′ and 3′ NTRs (non-translated regions) from HCV type 1b. Continued culture of the replicon cells in the presence of G418 (neo^R) is dependent on the replication of the HCV RNA. The stably transfected replicon cells that express HCV RNA, which replicates autonomously and to high levels, encoding inter alia luciferase, are used for screening the antiviral compounds.
# The replicon cells were plated in 384 well plates in the presence of the test and control compounds which were added in various concentrations. Following an incubation of three days, HCV replication was measured by assaying luciferase activity (using standard luciferase assay substrates and reagents and a Perkin Elmer ViewLux™ ultraHTS microplate imager). Replicon cells in the control cultures have high luciferase expression in the absence of any inhibitor. The inhibitory activity of the compound on luciferase activity was monitored on the Huh-Luc cells, enabling a doseresponse curve for each test compound.
# [4] = Huh-Luc cells, incubation of three days, luciferase activity
# T1 sequence (P27958 1027-1657, one chain of several): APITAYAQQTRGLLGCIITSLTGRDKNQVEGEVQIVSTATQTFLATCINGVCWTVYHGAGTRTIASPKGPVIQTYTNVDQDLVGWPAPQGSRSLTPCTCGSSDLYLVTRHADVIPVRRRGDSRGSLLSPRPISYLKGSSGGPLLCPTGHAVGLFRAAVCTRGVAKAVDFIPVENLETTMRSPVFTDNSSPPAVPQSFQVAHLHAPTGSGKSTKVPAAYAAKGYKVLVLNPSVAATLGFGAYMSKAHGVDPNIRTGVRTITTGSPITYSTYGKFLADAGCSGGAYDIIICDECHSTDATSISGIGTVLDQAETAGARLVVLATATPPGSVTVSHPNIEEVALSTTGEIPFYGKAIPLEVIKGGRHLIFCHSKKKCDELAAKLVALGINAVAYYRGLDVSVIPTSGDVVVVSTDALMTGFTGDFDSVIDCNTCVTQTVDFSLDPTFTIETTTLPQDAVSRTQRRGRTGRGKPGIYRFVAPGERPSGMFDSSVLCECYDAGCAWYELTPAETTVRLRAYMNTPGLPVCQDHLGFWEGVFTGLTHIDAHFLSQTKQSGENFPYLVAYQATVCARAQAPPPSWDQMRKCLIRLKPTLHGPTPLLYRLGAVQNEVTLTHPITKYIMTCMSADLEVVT
Compound,pKi [2],"pEC50 [3, 4]",further results
CCOC(=O)C12CC1C=CCCCCN(C)C(=O)C1CC(Oc3nc(-c4nc(C5CC5)cs4)cc4cc(OC)ccc34)CC1C(=O)N2 (centres unmarked),,,"ring closure, yield of all isomers ([1]; from C=CCCCCN(C)C(=O)C1CC(Oc2nc(-c3nc(C4CC4)cs3)cc3cc(OC)ccc23)CC1C(=O)NC1(C(=O)OCC)CC1C=C, 0.8 mM, 12.0 h): 85%"
CCOC(=O)C12CC1C=CCCCCN(C)C(=O)N1CC(OC(=O)c3ccc([N+](=O)[O-])cc3)CC1C(=O)N2 (centres unmarked),,,"ring closure, yield of all isomers ([1]; from C=CCCCCN(C)C(=O)N1CC(OC(=O)c2ccc([N+](=O)[O-])cc2)CC1C(=O)NC1(C(=O)OCC)CC1C=C, 1.64 mM, 20.0 h): 51%"
CCOC(=O)C12CC1C=CCCCCN(C)C(=O)N1CC(Oc3nc(Cl)cc4cc(OC)ccc34)CC1C(=O)N2 (centres unmarked),,,"ring closure, yield of all isomers ([1]; from C=CCCCCN(C)C(=O)N1CC(Oc2nc(Cl)cc3cc(OC)ccc23)CC1C(=O)NC1(C(=O)OCC)CC1C=C, 2.17 mM, 20.0 h): 58%"
CCOC(=O)C12CC1C=CCCCCN(C)C(=O)N1CC(Oc3ncc(Br)c4cc(OC)ccc34)CC1C(=O)N2 (centres unmarked),,,"ring closure, yield of all isomers ([1]; from C=CCCCCN(C)C(=O)N1CC(Oc2ncc(Br)c3cc(OC)ccc23)CC1C(=O)NC1(C(=O)OCC)CC1C=C, 1.55 mM, 20.0 h): 38%"
"COc1ccc2c(O[C@@H]3C[C@H]4C(=O)N[C@]5(C(=O)NS(=O)(=O)C6CC6)C[C@H]5/C=C\CCCCN(C)C(=O)N4C3)nc(-c3ccccc3)cc2c1 [Compound 56, N-[17-(3-phenyl-6-methoxyisoquinolin-1-yloxy)-13-methyl-2,14-dioxo-3,13,15-triaza-tricyclo[13.3.0.0^4,6]octadec-7-ene-4-carbonyl](cyclopropyl) sulfonamide]",8.96,,pEC50 [3]: 5.99
"COc1ccc2c(O[C@@H]3C[C@H]4C(=O)N[C@]5(C(=O)O)C[C@H]5/C=C\CCCCN(C)C(=O)N4C3)nc(-c3ccc(OC(F)(F)F)cc3)cc2c1 [Compound 57, 17-(3-(4-trifluoromethoxyphenyl)-6-methoxyisoquinolin-1-yloxy)-13-methyl-2,14-dioxo-3,13,15-triaza-tricyclo[13.3.0.0^4,6]octadec-7-ene-4-carboxylic acid]",6.68,5.09,
"COc1ccc2c(O[C@@H]3C[C@H]4C(=O)N[C@]5(C(=O)O)C[C@H]5/C=C\CCCCN(C)C(=O)N4C3)nc(-n3cccn3)cc2c1 [Compound 67, 17-(3-pyrazol-1-yl-6-methoxyisoquinolin-1-yloxy)-13-methyl-2,14-dioxo-3,13,15-triaza-tricyclo[13.3.0.0^4,6]octadec-7-ene-4-carboxylic acid]",< 6.00,< 5.00,
"COc1ccc2c(O[C@@H]3C[C@H]4C(=O)N[C@]5(C(=O)NS(=O)(=O)C6CC6)C[C@H]5/C=C\CCCCN(C)C(=O)N4C3)nc(-n3cccn3)cc2c1 [Compound 68, N-[17-(3-pyrazol-1-yl-6-methoxyisoquinolin-1-yloxy)-13-methyl-2,14-dioxo-3,13,15-triaza-tricyclo[13.3.0.0^4,6]octadec-7-ene-4-carbonyl](cyclopropyl)sulfonamide]",8.60,6.78,
"COc1ccc2c(O[C@@H]3C[C@H]4C(=O)N[C@]5(C(=O)NS(=O)(=O)C6CC6)C[C@H]5/C=C\CCCCN(C)C(=O)N4C3)nc(-c3nc(C(C)C)cs3)cc2c1 [Compound 70, N-[17-[3-(4-isopropylthiazol-2-yl)-6-methoxyisoquinolin-1-yloxy]-13-methyl-2,14-dioxo-3,13,15-triaza-tricyclo[13.3.0.0^4,6]octadec-7-ene-4-carbonyl](cyclopropyl)sulfonamide]",7.48,5.17,
